# Experimental data as given in the supplement of paper PMC10307832.
# Assays:
# Assay in all cases: relative viability (nuclei count vs DMSO), 5 days (fraction); higher = more cells survive
# [1] = compound: CS(=O)(=O)c1ccc(-c2cnc(N)c(C(=O)Nc3ccccc3)n2)cc1 [VE-821]
# Procedure, shortened: (§1)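 Viability was defined as treated-well nuclei divided by vehicle-well nuclei, with the median taken over replicate plates. Cells from lung cancer lines sat overnight at 37 °C in 1536-well plates, received five √10-spaced library-drug doses by pinning on vehicle-anchored plates, and grew 5 days without medium change before one-step fixation, permeabilisation and Hoechst staining, 4× imaging and MetaXpress nuclear counts. Only plates with control CV under 25% and at least one doubling were kept.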
# [2] = compound: CS(=O)(=O)c1ccc(C(=O)Nc2ccc(Cl)c(-c3ccccn3)c2)c(Cl)c1 [Vismodegib]
# Procedure, shortened: as §1
# [3] = compound: N#CC[C@H](C1CCCC1)n1cc(-c2ncnc3[nH]ccc23)cn1 [Ruxolitinib]
# Procedure, shortened: as §1
# [4] = compound: CS(=O)(=O)c1ccc(C(=O)Nc2ccc(Cl)c(-c3ccccn3)c2)c(Cl)c1 [Vismodegib] + C[C@@H](Oc1cc(-c2cnn(C3CCNCC3)c2)cnc1N)c1c(Cl)ccc(F)c1Cl [Crizotinib] (partner 1 µM)
# Procedure, shortened: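 Nuclei were stained with Hoechst during a one-step fixation (final 0.05% Triton X-100, 1% formaldehyde, 1 ug/ml Hoechst) carried out 5 days after dosing, then counted on 4× images. The cells, lung cancer lines in 1536-well plates, had been dosed by pin tool the day after seeding with one drug alone or a fixed anchor-drug dose plus five library-drug doses (not always all listed) in √10 steps. Relative viability is the nuclei count in treated wells divided by that in vehicle wells, and each value is the median of duplicate plates.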
cell line,measurement,setting,value
NCI-H1944,relative viability,[1]; 0.08 µM,1.18
same,relative viability,[1]; 0.253 µM,0.933
same,relative viability,[1]; 0.8 µM,0.873
same,relative viability,[1]; 2.53 µM,1.08
same,relative viability,[1]; 8 µM,0.425
same,relative viability,[2]; 0.08 µM,1.05
same,relative viability,[2]; 0.253 µM,1.02
same,relative viability,[2]; 0.8 µM,0.966
same,relative viability,[2]; 2.53 µM,0.904
same,relative viability,[2]; 8 µM,1.04
same,relative viability,[3]; 0.08 µM,1.02
same,relative viability,[3]; 0.253 µM,0.927
same,relative viability,[3]; 0.8 µM,0.968
same,relative viability,[3]; 2.53 µM,0.875
same,relative viability,[3]; 8 µM,0.863
same,relative viability,[4]; first compound 0.08 µM,0.993
same,relative viability,[4]; first compound 0.253 µM,1.22
same,relative viability,[4]; first compound 0.8 µM,1.08
same,relative viability,[4]; first compound 2.53 µM,1.05
same,relative viability,[4]; first compound 8 µM,1.08
NCI-H1975,relative viability,[1]; 0.08 µM,1.01
same,relative viability,[1]; 0.253 µM,0.845
same,relative viability,[1]; 0.8 µM,0.811
same,relative viability,[1]; 2.53 µM,0.795
same,relative viability,[1]; 8 µM,0.739
same,relative viability,[2]; 0.08 µM,0.901
same,relative viability,[2]; 0.253 µM,0.925
same,relative viability,[2]; 0.8 µM,1.03
same,relative viability,[2]; 2.53 µM,1.02
same,relative viability,[2]; 8 µM,1.01
same,relative viability,[3]; 0.08 µM,0.893
same,relative viability,[3]; 0.253 µM,0.92
same,relative viability,[3]; 0.8 µM,0.973
same,relative viability,[3]; 2.53 µM,0.83
same,relative viability,[3]; 8 µM,0.649
same,relative viability,[4]; first compound 0.08 µM,0.953
same,relative viability,[4]; first compound 0.253 µM,0.957
same,relative viability,[4]; first compound 0.8 µM,0.945
same,relative viability,[4]; first compound 2.53 µM,0.826
same,relative viability,[4]; first compound 8 µM,0.94
NCI-H1993,relative viability,[1]; 0.08 µM,0.92
same,relative viability,[1]; 0.253 µM,0.844
same,relative viability,[1]; 0.8 µM,0.916
same,relative viability,[1]; 2.53 µM,0.929
same,relative viability,[1]; 8 µM,0.692
same,relative viability,[2]; 0.08 µM,0.807
same,relative viability,[2]; 0.253 µM,0.916
same,relative viability,[2]; 0.8 µM,0.859
same,relative viability,[2]; 2.53 µM,0.875
same,relative viability,[2]; 8 µM,0.87
same,relative viability,[3]; 0.08 µM,0.872
same,relative viability,[3]; 0.253 µM,0.774
same,relative viability,[3]; 0.8 µM,1.04
same,relative viability,[3]; 2.53 µM,1
same,relative viability,[3]; 8 µM,0.771
same,relative viability,[4]; first compound 0.08 µM,0.995
same,relative viability,[4]; first compound 0.253 µM,0.958
same,relative viability,[4]; first compound 0.8 µM,0.768
same,relative viability,[4]; first compound 2.53 µM,0.851
same,relative viability,[4]; first compound 8 µM,0.906
NCI-H2009,relative viability,[1]; 0.08 µM,1.03
same,relative viability,[1]; 0.253 µM,0.961
same,relative viability,[1]; 0.8 µM,1
same,relative viability,[1]; 2.53 µM,1.06
same,relative viability,[1]; 8 µM,0.863
same,relative viability,[2]; 0.08 µM,0.982
same,relative viability,[2]; 0.253 µM,0.977
same,relative viability,[2]; 0.8 µM,0.976
same,relative viability,[2]; 2.53 µM,0.964
same,relative viability,[2]; 8 µM,0.992
same,relative viability,[3]; 0.08 µM,1.03
same,relative viability,[3]; 0.253 µM,1.01
same,relative viability,[3]; 0.8 µM,1.04
same,relative viability,[3]; 2.53 µM,0.842
same,relative viability,[3]; 8 µM,0.657
same,relative viability,[4]; first compound 0.08 µM,0.94
same,relative viability,[4]; first compound 0.253 µM,1.05
same,relative viability,[4]; first compound 0.8 µM,1.13
same,relative viability,[4]; first compound 2.53 µM,1.01
same,relative viability,[4]; first compound 8 µM,1.12
NCI-H2023,relative viability,[1]; 0.08 µM,1.1
same,relative viability,[1]; 0.253 µM,0.874
same,relative viability,[1]; 0.8 µM,0.672
same,relative viability,[1]; 2.53 µM,0.494
same,relative viability,[1]; 8 µM,0.172
same,relative viability,[2]; 0.08 µM,0.925
same,relative viability,[2]; 0.253 µM,0.892
same,relative viability,[2]; 0.8 µM,0.95
same,relative viability,[2]; 2.53 µM,1.06
same,relative viability,[2]; 8 µM,0.98
same,relative viability,[3]; 0.08 µM,1.03
same,relative viability,[3]; 0.253 µM,0.835
same,relative viability,[3]; 0.8 µM,1.18
same,relative viability,[3]; 2.53 µM,0.9
same,relative viability,[3]; 8 µM,0.988
same,relative viability,[4]; first compound 0.08 µM,0.586
same,relative viability,[4]; first compound 0.253 µM,0.56
same,relative viability,[4]; first compound 0.8 µM,0.707
same,relative viability,[4]; first compound 2.53 µM,0.615
same,relative viability,[4]; first compound 8 µM,0.685
NCI-H2085,relative viability,[1]; 0.08 µM,1.03
same,relative viability,[1]; 0.253 µM,0.973
same,relative viability,[1]; 0.8 µM,0.843
same,relative viability,[1]; 2.53 µM,1.14
same,relative viability,[1]; 8 µM,0.946
same,relative viability,[2]; 0.08 µM,0.977
same,relative viability,[2]; 0.253 µM,0.995
same,relative viability,[2]; 0.8 µM,0.994
same,relative viability,[2]; 2.53 µM,0.997
same,relative viability,[2]; 8 µM,0.937
same,relative viability,[3]; 0.08 µM,1.03
same,relative viability,[3]; 0.253 µM,1.01
same,relative viability,[3]; 0.8 µM,1.09
same,relative viability,[3]; 2.53 µM,0.901
same,relative viability,[3]; 8 µM,0.876
same,relative viability,[4]; first compound 0.08 µM,0.867
same,relative viability,[4]; first compound 0.253 µM,0.873
same,relative viability,[4]; first compound 0.8 µM,0.854
same,relative viability,[4]; first compound 2.53 µM,0.826
same,relative viability,[4]; first compound 8 µM,0.83
NCI-H2087,relative viability,[1]; 0.08 µM,1.16
same,relative viability,[1]; 0.253 µM,0.871
same,relative viability,[1]; 0.8 µM,0.958
same,relative viability,[1]; 2.53 µM,1.32
same,relative viability,[1]; 8 µM,1.05
same,relative viability,[2]; 0.08 µM,0.946
same,relative viability,[2]; 0.253 µM,0.969
same,relative viability,[2]; 0.8 µM,0.941
same,relative viability,[2]; 2.53 µM,1.09
same,relative viability,[2]; 8 µM,0.906
same,relative viability,[3]; 0.08 µM,1.04
same,relative viability,[3]; 0.253 µM,0.957
same,relative viability,[3]; 0.8 µM,1.12
same,relative viability,[3]; 2.53 µM,0.935
same,relative viability,[3]; 8 µM,0.941
same,relative viability,[4]; first compound 0.08 µM,0.834
same,relative viability,[4]; first compound 0.253 µM,0.906
same,relative viability,[4]; first compound 0.8 µM,0.713
same,relative viability,[4]; first compound 2.53 µM,0.797
same,relative viability,[4]; first compound 8 µM,0.908
NCI-H2126,relative viability,[1]; 0.08 µM,1.02
same,relative viability,[1]; 0.253 µM,0.924
same,relative viability,[1]; 0.8 µM,0.966
same,relative viability,[1]; 2.53 µM,0.96
same,relative viability,[1]; 8 µM,0.729
same,relative viability,[2]; 0.08 µM,0.994
same,relative viability,[2]; 0.253 µM,0.962
same,relative viability,[2]; 0.8 µM,0.949
same,relative viability,[2]; 2.53 µM,0.968
same,relative viability,[2]; 8 µM,0.927
same,relative viability,[3]; 0.08 µM,1
same,relative viability,[3]; 0.253 µM,1.02
same,relative viability,[3]; 0.8 µM,1.09
same,relative viability,[3]; 2.53 µM,1.12
same,relative viability,[3]; 8 µM,0.986
same,relative viability,[4]; first compound 0.08 µM,1.11
same,relative viability,[4]; first compound 0.253 µM,0.96
same,relative viability,[4]; first compound 0.8 µM,1.08
same,relative viability,[4]; first compound 2.53 µM,0.991
same,relative viability,[4]; first compound 8 µM,1.04
NCI-H2170,relative viability,[1]; 0.08 µM,0.972
same,relative viability,[1]; 0.253 µM,0.932
same,relative viability,[1]; 0.8 µM,1.01
same,relative viability,[1]; 2.53 µM,0.966
same,relative viability,[1]; 8 µM,0.642
same,relative viability,[2]; 0.08 µM,1.03
same,relative viability,[2]; 0.253 µM,0.959
same,relative viability,[2]; 0.8 µM,1.01
same,relative viability,[2]; 2.53 µM,0.955
same,relative viability,[2]; 8 µM,0.993
same,relative viability,[3]; 0.08 µM,1.05
same,relative viability,[3]; 0.253 µM,0.975
same,relative viability,[3]; 0.8 µM,1
same,relative viability,[3]; 2.53 µM,0.924
same,relative viability,[3]; 8 µM,0.841
same,relative viability,[4]; first compound 0.08 µM,1.23
same,relative viability,[4]; first compound 0.253 µM,1.08
same,relative viability,[4]; first compound 0.8 µM,1.19
same,relative viability,[4]; first compound 2.53 µM,1.17
same,relative viability,[4]; first compound 8 µM,1.31
